Source: patent US7829114B2, “Capsules containing aqueous fill compositions stabilized with derivatized cyclodextrin” (CyDex Pharmaceuticals, Inc., priority 2002, dated 2010)

Experiment: Water activity measurement
Assay type: physicochemical
Details: about 20-25° C.
Description: Without being held bound to a particular mechanism, it is believed that the increasing the concentration of derivatized cyclodextrin present in the aqueous fill composition results in reduced water activity for the fill composition. The table below provides a summary of water activity versus concentration of cyclodextrin derivatives or some shell-stabilizing materials in water at about 20-25° C., or ambient temperature.
The values detailed above are approximate and can vary from instrument to instrument. These values were determined according to the procedure described herein on a water activity meter described herein. The numbers can also vary within the standard deviation of a particular instrument. It is also possible for the numbers to vary according to the accuracy and reproducibility of the instrument used as well as the method for calibrating the instrument with solution standards of known water activity.
Water activity was measured by placing a sample solution in a small, sealed container and determining the equilibrium humidity and temperature in the container. Instruments such as the HygroLab 3 from Rotronic Instrument Corp. , Huntington, N.Y. were used to measure the water activity. The humidity is determined using a thin film capacitive sensor in the headspace of the container. The temperature is determined using a Pt RTD 100 sensor. From these measurements the activity of water (Aw) is calculated by the instrument. The instrument has an accuracy of about ±0.015 Aw and a repeatability of about ±0.005 Aw. Carefully prepared salt-containing stock solutions of known concentration and water activity were used to calibrate the instrument prior to use.

With sulfobutyl ether cyclodextrin [SAE-CD] the “Water Activity (approximate values)” value (10 % w/w in water) was about 0.98, the “Water Activity (approximate values)” value (20 % w/w in water) was about 0.98 and the “Water Activity (approximate values)” value (30 % w/w in water) was about 0.97. The “Water Activity (approximate values)” value (40 % w/w in water) was about 0.95, the “Water Activity (approximate values)” value (50 % w/w in water) was about 0.91 and the “Water Activity (approximate values)” value (55 % w/w in water) was about 0.88. The “Water Activity (approximate values)” value (60 % w/w in water) was about 0.86 and the “Water Activity (approximate values)” value (70 % w/w in water) was about 0.76.
